Measured values taken from ChEMBL document CHEMBL3621121, “Modeling, synthesis and NMR characterization of novel chimera compounds targeting STAT3” (Medchemcomm, 2014).

Columns and labels:
[1] = biological target: Signal transducer and activator of transcription 3 (Homo sapiens) (UniProt P40763); assay: Inhibition of STAT3 in human HCT116 cells at 10 uM after 24 hrs by firefly and renilla dual luciferase assay; format: cell-based; details: HCT-116
[2] = biological target: Signal transducer and activator of transcription 3 (Homo sapiens) (UniProt P40763); assay: Inhibition of STAT3 in human HCT116 cells at 50 uM after 24 hrs by firefly and renilla dual luciferase assay; format: cell-based; details: HCT-116
[3] = biological target: Signal transducer and activator of transcription 3 (Homo sapiens) (UniProt P40763); assay: Inhibition of SH2 domain of STAT3 (unknown origin) using (FITC)-GpYLPQTV after 90 mins by AlphaScreen bead-based nonradioactive assay

Sequence of Signal transducer and activator of transcription 3 (Homo sapiens) (P40763 whole entry, the tested form may be a part): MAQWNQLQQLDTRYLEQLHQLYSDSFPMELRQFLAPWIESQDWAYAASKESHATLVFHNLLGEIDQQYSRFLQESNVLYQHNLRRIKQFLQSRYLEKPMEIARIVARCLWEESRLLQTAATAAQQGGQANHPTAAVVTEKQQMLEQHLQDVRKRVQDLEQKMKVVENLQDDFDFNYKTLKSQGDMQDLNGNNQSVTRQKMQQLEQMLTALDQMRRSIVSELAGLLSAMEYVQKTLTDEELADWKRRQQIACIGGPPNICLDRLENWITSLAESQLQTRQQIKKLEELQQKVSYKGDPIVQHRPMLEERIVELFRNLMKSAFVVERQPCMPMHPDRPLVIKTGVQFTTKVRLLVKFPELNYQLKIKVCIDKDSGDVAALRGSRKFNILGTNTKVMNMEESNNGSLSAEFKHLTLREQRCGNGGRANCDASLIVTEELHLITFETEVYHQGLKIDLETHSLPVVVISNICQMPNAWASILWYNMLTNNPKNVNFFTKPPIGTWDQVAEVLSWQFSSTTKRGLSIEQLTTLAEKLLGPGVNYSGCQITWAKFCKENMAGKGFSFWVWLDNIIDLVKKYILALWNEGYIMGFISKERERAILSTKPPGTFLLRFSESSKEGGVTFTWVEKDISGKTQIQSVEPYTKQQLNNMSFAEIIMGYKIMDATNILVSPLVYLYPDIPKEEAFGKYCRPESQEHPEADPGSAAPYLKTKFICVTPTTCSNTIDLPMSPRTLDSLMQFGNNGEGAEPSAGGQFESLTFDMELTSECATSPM

Row | SMILES | inhibition [1] [%] | inhibition [2] [%] | inhibition [3] [%]
1 | C[C@H]1COC2=C1C(=O)C(=O)c1c2ccc2c1CCCC2(C)C | 78 | 85 | 
2 | O=C(Nc1ccc(C(F)(F)F)cc1)C1Cc2cc(=O)[nH]nc2-c2ccccc21 (racemic) | 2 | 7 | 
3 | O=C1CC2CC(C(=O)Nc3ccc(C(F)(F)F)cc3)c3ccccc3C2=NN1 (racemic; 1) | -3 | 6 | 
4 | O=C1CC2CC(C(=O)Nc3ccc(C(F)(F)F)cc3)c3ccccc3C2=NN1 (racemic; 2) | -6 | 3 | 
5 | O=C1CC2CC(C(=O)Nc3ccc(C(F)(F)F)cc3)c3ccccc3C2=NN1 (single isomer, unassigned; (+)-1) | 9 | 35 | < 5
6 | O=C1CC2CC(C(=O)Nc3ccc(C(F)(F)F)cc3)c3ccccc3C2=NN1 (single isomer, unassigned; (+)-2a) | -8 | 12 | 
7 | O=C(Nc1ccc(C(F)(F)F)cc1)C1Cc2cc(=O)[nH]nc2-c2ccccc21 (single isomer, unassigned; (-)) | 2 | 30 | 
8 | O=C1CC2CC(C(=O)Nc3ccc(C(F)(F)F)cc3)c3ccccc3C2=NN1 (single isomer, unassigned; (-)-1) | 9 | 14 | 
9 | O=C1CC2CC(C(=O)Nc3ccc(C(F)(F)F)cc3)c3ccccc3C2=NN1 (single isomer, unassigned; (-)-2b) | 1 | 16 | 
10 | O=C(Nc1ccc(C(F)(F)F)cc1)C1Cc2cc(=O)[nH]nc2-c2ccccc21 (stereo in doubt; (+)-3a) | -2 | 24 | 
